Measurements reported in US9211261B2, “Immediate release dosage forms containing solid drug dispersions” (Bend Research, Inc., priority 2002, dated 2015).

Assay: In vitro dissolution test of Drug 1 from tablets (simulated intestinal buffer pH 6.8 with 0.5 wt % sodium lauryl sulfate)
Assay type: physicochemical
Conditions: 120 mgA tablet of Example 2, 900 mL pH 6.8 buffer + 0.5 wt % SLS, 37° C., 100 rpm, average of two tests
Protocol: An in vitro test may be used to determine whether a dosage form provides a release profile within the scope of the present invention. In vitro tests are well known in the art. One example is a so-called “direct” test, where the dosage form is placed into a stirred USP type 2 dissoette flask containing 900 mL of a dissolution medium maintained at 37° C., such as a buffer solution simulating a gastric environment (10 mM HCl, 100 mM NaCl, pH 2.0, 261 mOsm/kg) or the PBS or MFD solutions previously described. One skilled in the art will understand that in such tests the dissolution medium should act as a sink for the drug in the dosage form. By “sink” is meant that the composition and volume of the dissolution medium is sufficient such that substantially all of the drug in the dosage form will dissolve into the dissolution medium within about 4 hours or less. In some cases a surfactant, such as sodium lauryl sulfate or other excipients may be added to the dissolution medium to ensure the dissolution medium acts as a sink for the drug. The dosage form is placed in a wire support to keep the dosage form off of the bottom of the flask, so that all of its surfaces are exposed to the dissolution medium, and the medium is stirred using paddles that rotate at a rate of 50 rpm. Samples of the dissolution medium are taken at periodic intervals using a VanKel VK8000 autosampling dissoette with automatic receptor solution replacement. The concentration of dissolved drug in the dissolution medium is then determined by High Performance Liquid Chromatography (HPLC), by comparing UV absorbance of samples to the absorbance of drug standards. The mass of dissolved drug in the dissolution medium is then calculated from the concentration of drug in the medium and the volume of the medium, which value is used to calculate the actual amount of drug released from the dosage form, taking into consideration the mass of drug originally present in the dosage form.
Drug 1 dissolution from the tablets of Example 2 was measured using an in vitro test. First, a dissolution medium consisting of a simulated intestinal buffer solution was made by dissolving 6.8 g of KH2PO4 in 750 mL of deionized water with 85 mL 0.2M NaOH. Water was added for a final volume of 1 L. The pH was adjusted to 6.8±0.1 using 0.2M NaOH. Next, 0.5 wt % sodium lauryl sulfate was added to the buffer. A 900 mL sample of this solution was added to each of two vessels in a VanKel dissolution testing apparatus with automatic sampling. The solution temperature was maintained at 37° C., and stirred with a paddle speed of 100 rpm. This dissolution medium acted as a sink for the 120 mgA tablets. After equilibration to 37° C., a tablet of Example 2 was added to each vessel containing the buffer solution, resulting in a Drug 1 concentration of 130 μgA/mL, assuming all of the drug had dissolved. Samples were collected at 5, 15, 20, 35, 45, 60, 75, 90, 120 and 180 minutes, and then analyzed by HPLC using a Waters Symmetry C8 column. The mobile phase consisted of 0.2 vol % H3PO4 (in water)/methanol in the ratio of 15/85 (vol/vol). Drug 1 concentration was calculated by comparing UV absorbance at 256 nm to the absorbance of Drug 1 standards.

**Q.** With `CCOC(=O)N1c2ccc(C(F)(F)F)cc2C(N(Cc2cc(C(F)(F)F)cc(C(F)(F)F)c2)C(=O)OC)CC1CC` (stereo not shown) [Drug 1, 4-[(3,5-bis-trifluoromethyl-benzyl)-methoxycarbonyl-amino]-2-ethyl-6-trifluoromethyl-3,4-dihydro-2H-quinoline-1-carboxylic acid ethyl ester] as the molecule, how does the “Drug 1 Concentration” value (time 0 min) read?
**A.** 0 μgA/mL

**Q.** What about the “Drug 1 Released” value (time 0 min) of the same molecule?
**A.** 0 wt %

**Q.** And the “Drug 1 Concentration” value (time 5 min)?
**A.** 49 μgA/mL

**Q.** What about the “Drug 1 Released” value (time 5 min) of the same molecule?
**A.** 37 wt %

**Q.** What about the “Drug 1 Concentration” value (time 15 min) of the same molecule?
**A.** 114 μgA/mL

**Q.** What about the “Drug 1 Released” value (time 15 min) of the same molecule?
**A.** 87 wt %

**Q.** And the “Drug 1 Concentration” value (time 20 min)?
**A.** 123 μgA/mL

**Q.** And the “Drug 1 Released” value (time 20 min)?
**A.** 94 wt %

**Q.** And the “Drug 1 Concentration” value (time 35 min)?
**A.** 126 μgA/mL

**Q.** What about the “Drug 1 Released” value (time 35 min) of the same molecule?
**A.** 96 wt %

**Q.** And the “Drug 1 Concentration” value (time 45 min)?
**A.** 126 μgA/mL

**Q.** What about the “Drug 1 Released” value (time 45 min) of the same molecule?
**A.** 96 wt %

**Q.** What about the “Drug 1 Concentration” value (time 60 min) of the same molecule?
**A.** 125 μgA/mL

**Q.** What about the “Drug 1 Released” value (time 60 min) of the same molecule?
**A.** 95 wt %

**Q.** What about the “Drug 1 Concentration” value (time 75 min) of the same molecule?
**A.** 128 μgA/mL

**Q.** And the “Drug 1 Released” value (time 75 min)?
**A.** 98 wt %

**Q.** And the “Drug 1 Concentration” value (time 90 min)?
**A.** 127 μgA/mL

**Q.** What about the “Drug 1 Released” value (time 90 min) of the same molecule?
**A.** 97 wt %

**Q.** And the “Drug 1 Concentration” value (time 120 min)?
**A.** 127 μgA/mL

**Q.** What about the “Drug 1 Released” value (time 120 min) of the same molecule?
**A.** 97 wt %

**Q.** And the “Drug 1 Concentration” value (time 180 min)?
**A.** 131 μgA/mL

**Q.** What about the “Drug 1 Released” value (time 180 min) of the same molecule?
**A.** 100 wt %
